Tested on: Bdnf, Arc, Egr-1, Egr-2, Egr-3 mRNA in mouse PFC, HIP, mPFC
Experiment: In vivo gene expression
Details: PFC and HIP, 30 min after 10 mg/kg i.p.

CN(C)CCc1c[nH]c2ccccc12 [DMT, dimethyltryptamine]
Expression of Egr-2 mRNA: significantly elevated expression

Reference: publication PMC12916285 (Molecular Psychiatry, 2025)
